The source of these data is US20100022562A1, “Use of Plant Growth Regulators to Reduce Abscisic Acid Related Plant Leaf Yellowing” (priority 2008, published 2010).

Series [1] relates to Pansy plants. The series is described as follows: Pansy shelf life under drought (daily wilting rating, sales index). Type of series: in vivo. On the procedure:
(§1) All studies were conducted in the greenhouse at the research farm of Valent BioSciences Corporation (Long Grove, Ill.). Pansy plants were obtained either from local retailers as mature plants, or plugs from wholesale nurseries. Plugs of Pansy plants were transplanted into an 18-cell flat filled with Promix BX (available from Premier Horticulture Inc. Quakertown, Pa.) and grown for about 30 days prior to treatment. During growing periods, plants received daily irrigation and weekly fertilizer (1 g/L all purpose fertilizer 20-20-20, The Scotts Company, Marysville, Ohio).
(§2) Uniform plants were selected for the study. Prior to chemical treatment, plants were saturated with water and then drained for about two hours. A total of 20 mL chemical solution, which is equivalent to about 10% of the cell volume, was applied to each plant with 3 mL solution foliar applied to canopy and 17 mL solution drench applied to root zone. Unless specified, watering of plants was stopped after chemical treatment.
(§3) After chemical treatment, plants were arranged in a randomized complete block experimental design. The plants were rated daily for the extent of wilting on a scale from 1 (no wilting) to 4 (complete wilting) to generated a sales index rating. A rating of 2.5 was the point at which a plant was determined to be unmarketable and the previous day was recorded as the shelf life of that plant in days. Yellow leaf number was counted at 3 days after chemical treatment. Leaf transpiration rate was measured after treatment using a LI-1600 Steady State Porometer (LI-Cor, Lincoln, Nebr.). The transpiration rate of each treatment was calculated as the percentage of that of control at each day to reduce day-to-day variation caused by changes of environmental condition such as light intensity, humidity, and temperature.

In series [2] the test system is Pansy plants. The series is described as follows: Pansy yellow leaf number (leaf yellowing). Type of series: in vivo. On the procedure: as §1, §2
as §3, with “Yellow leaf number was counted at 3 days after chemical treatment.” left out

The mark [3] stands for this setting: 0.3 mg, Matrix Orange, drought, Table 2.
Where [4] appears, read: 3 mg, Matrix Orange, drought, Table 2.
Where [5] appears, read: 0.3 mg, Matrix Orange, drought, 3 d after treatment, Table 2.
Setting [6] is: 3 mg, Matrix Orange, drought, 3 d after treatment, Table 2.

Consider `C#CC1(C)CC(=O)C=C(C)C1(O)C=CC(C)=CC(=O)O` (centres unmarked) [PBI-524, 8′ acetylene-ABA, acid], for which the Shelf life with Pansy plants [1] (setting [3]) was found to be 6.5 days; in the series with Pansy plants [1] (setting [4]), 8.8 days. The Yellow leaf number amounted to 11.0 in the series with Pansy plants [2] (setting [5]) and 11.2 in the series on Pansy plants [2] (setting [6]).

For `COC(=O)C=C(C)C=CC1(O)C(C)=CC(=O)CC1(C)C1CC1` (centres unmarked) [PBI-696, 8′ cyclopropane ester], the Shelf life with Pansy plants [1] (setting [3]) is reported as 5.3 days; in the series with Pansy plants [1] (setting [4]), 7.8 days. Further, the Yellow leaf number in the series on Pansy plants [2] (setting [5]) is given as 9.0.

Take `COC(=O)C=C(C)C#CC1(O)c2ccccc2C(=O)CC1(C)C` (mixture of isomers) [PBI-702, tetralone, first carbon tail acetylene, ester]: the Shelf life in the series with Pansy plants [1] (setting [3]) was found to be 4.7 days; in the series on Pansy plants [1] (setting [4]), 7.0 days. In addition, the Yellow leaf number in the series on Pansy plants [2] (setting [5]) is on record as 10.8; with Pansy plants [2] (setting [6]), 11.0.

With `COC(=O)C=C(C)C=CC1(O)c2ccccc2C(=O)CC1(C)C` (mixture of isomers) [PBI-488, tetralone, ester], the Shelf life in the series with Pansy plants [1] (setting [3]) turned out to be 5.3 days; in the series on Pansy plants [1] (setting [4]), 7.0 days. In addition, the figures for the Yellow leaf number in the series with Pansy plants [2] (setting [5]) and in the series on Pansy plants [2] (setting [6]) were 9.2 and 11.5, respectively.

With `C/C(C#C[C@]1(O)C(C)CC(=O)CC1(C)C)=C/CO` (some centres unmarked) [PBI-51], the Shelf life in the series on Pansy plants [1] (3 mg, Delta Premium Pure Golden Yellow, advanced seedling stage (1 month old), drought, Table 4) came out at 3.7 days; with Pansy plants [1] (3 mg, Delta Premium Pure Golden Yellow, drought, Table 3) it was 5.0 days; in the series on Pansy plants [1] (30 mg, Delta Premium Pure Golden Yellow, advanced seedling stage (1 month old), drought, Table 4), 3.5 days; in the series with Pansy plants [1] (30 mg, Delta Premium Pure Golden Yellow, drought, Table 3), 5.0 days. The Yellow leaf number is reported as 8.2 with Pansy plants [2] (3 mg, Delta Premium Pure Golden Yellow, advanced seedling stage (1 month old), drought, 3 d after treatment, Table 4); 7.5 in the series on Pansy plants [2] (3 mg, Delta Premium Pure Golden Yellow, drought, 3 d after treatment, Table 3); 8.8 with Pansy plants [2] (30 mg, Delta Premium Pure Golden Yellow, advanced seedling stage (1 month old), drought, 3 d after treatment, Table 4); 8.0 in the series on Pansy plants [2] (30 mg, Delta Premium Pure Golden Yellow, drought, 3 d after treatment, Table 3).

Regarding `CC1=CC1` [MCP, 1-methylcyclopropene], the Shelf life with Pansy plants [1] (10 μL L^−1 MCP (12 hours) at 0 hrs, Delta Premium Pure White, Table 22) came to 4.0 days; in the series with Pansy plants [1] (10 μL L^−1 MCP (12 hours) at +24 hrs, Delta Premium Pure White, Table 22), 4.0 days; in the series with Pansy plants [1] (10 μL L^−1 MCP (12 hours) at −24 hrs, Delta Premium Pure White, Table 22) it was 4.0 days; in the series on Pansy plants [1] (10 μL L^−1 MCP for 12 hours, Colossus Formula Mix, no water, Table 20), 4.2 days; in the series on Pansy plants [1] (10 μL L^−1 MCP for 24 hours, Delta Premium Pure White, Table 21) it was 7.0 days; in the series with Pansy plants [1] (10 μL L^−1 MCP, Delta Premium Pure White, Table 23), 4.5 days. Moreover, the Yellow leaf number in the series with Pansy plants [2] (10 μL L^−1 MCP (12 hours) at 0 hrs, Delta Premium Pure White, 3 days after treatment, Table 22) stood at 1.8; with Pansy plants [2] (10 μL L^−1 MCP (12 hours) at 0 hrs, Delta Premium Pure White, 7 days after treatment, Table 22) it was 4.0; in the series on Pansy plants [2] (10 μL L^−1 MCP (12 hours) at +24 hrs, Delta Premium Pure White, 3 days after treatment, Table 22) it was 2.2; in the series on Pansy plants [2] (10 μL L^−1 MCP (12 hours) at +24 hrs, Delta Premium Pure White, 7 days after treatment, Table 22) it was 4.0; with Pansy plants [2] (10 μL L^−1 MCP (12 hours) at −24 hrs, Delta Premium Pure White, 3 days after treatment, Table 22) it was 2.0; in the series on Pansy plants [2] (10 μL L^−1 MCP (12 hours) at −24 hrs, Delta Premium Pure White, 7 days after treatment, Table 22), 4.0. The Yellow leaf number in the series with Pansy plants [2] (10 μL L^−1 MCP for 12 hours, Colossus Formula Mix, 3 days after treatment, Table 20) is given as 0.2; in the series on Pansy plants [2] (10 μL L^−1 MCP for 12 hours, Colossus Formula Mix, 8 days after treatment, Table 20) it was 1.7; in the series with Pansy plants [2] (10 μL L^−1 MCP for 24 hours, Delta Premium Pure White, 3 days after treatment, Table 21), 0.0; with Pansy plants [2] (10 μL L^−1 MCP for 24 hours, Delta Premium Pure White, 8 days after treatment, Table 21), 0.7; in the series on Pansy plants [2] (10 μL L^−1 MCP, Delta Premium Pure White, 3 days after treatment, Table 23), 3.2; with Pansy plants [2] (10 μL L^−1 MCP, Delta Premium Pure White, 7 days after treatment, Table 23) it was 6.7.

On to `O=C(Nc1ccccc1)Nc1ccnc(Cl)c1` [CPPU, N1-(2-chloro-4-pyridyl)-N3-phenylurea], for which the Shelf life in the series with Pansy plants [1] (0.02 mg CPPU, Matrix Yellow, Table 6) is 3.2 days; in the series on Pansy plants [1] (0.2 mg CPPU, Matrix Yellow, Table 6), 2.8 days. For the same compound, the Yellow leaf number with Pansy plants [2] (0.02 mg CPPU, Matrix Yellow, 3 d after treatment, Table 6) amounted to 7.7; in the series on Pansy plants [2] (0.2 mg CPPU, Matrix Yellow, 3 d after treatment, Table 6) it was 5.7.

With `CCOC(=O)C1CC(=O)C(=C(O)C2CC2)C(=O)C1` (centres unmarked) [TE, trinexapac-ethyl], the Shelf life in the series on Pansy plants [1] (30 mg, Matrix Yellow, drought, Table 10) was found to be 2.5 days. The compound also registered a Yellow leaf number in the series with Pansy plants [2] (30 mg, Matrix Yellow, drought, 3 d after treatment, Table 10) of 8.7.
